Assay results from patent publication US8193361B2, “I-alkynyl 2-aryloxyalkylamides and their use as fungicides” (Syngenta Limited, priority 2004, dated 2012).

How the values were obtained:
[1] = test system: Puccinia recondita f. sp. tritici; test: Leaf disk assay, Puccinia recondita f. sp. tritici (wheat brown rust), preventive; assay type: in vivo; settings: 200 ppm; wheat leaf segments; assessed nine days after inoculation
Method: The compounds were tested in a leaf disk assay, with methods described below. The test compounds were dissolved in DMSO and diluted into water to 200 ppm. In the case of the test on Pythium ultimum, they were dissolved in DMSO and diluted into water to 20 ppm.
Erysiphe graminis f. sp. hordei (barley powdery mildew): Barley leaf segments were placed on agar in a 24-well plate and sprayed with a solution of the test compound. After allowing to dry completely, for between 12 and 24 hours, the leaf disks were inoculated with a spore suspension of the fungus. After appropriate incubation the activity of a compound was assessed four days after inoculation as preventive fungicidal activity. Erysiphe graminis f. sp. tritici (wheat powdery mildew): Wheat leaf segments were placed on agar in a 24-well plate and sprayed with a solution of the test compound. After allowing to dry completely, for between 12 and 24 hours, the leaf disks were inoculated with a spore suspension of the fungus. After appropriate incubation the activity of a compound was assessed four days after inoculation as preventive fungicidal activity. […] After appropriate incubation the activity of a compound was assessed nine days after inoculation as preventive fungicidal activity. […] After appropriate incubation the activity of a compound was assessed four days after inoculation as preventive fungicidal activity.

Pyricularia oryzae = assay type: in vivo; settings: 200 ppm; rice leaf segments; assessed four days after inoculation

SMILES | control of fungal infection [1] | control of fungal infection (Pyricularia oryzae)
C#CC(C)(C)NC(=O)C(Oc1ccc2oc3ccccc3c2c1)SC (centres unmarked) [1 (16)] | at least 60% | –
CC#CC(C)(C)NC(=O)C(Oc1ccc2oc3ccccc3c2c1)SC (centres unmarked) [4 (16), 2-(dibenzofuranyl-2-oxy)-2-methylthio-N-(2-methylpent-3-yn-2-yl)acetamide] | – | at least 60%
